Numbers after ± are expanded uncertainties.
Settings: Crystal; DTA

Work on `CC[C@H]1OC(=O)[C@H](C)[C@@H](O[C@H]2C[C@@](C)(OC)[C@@H](O)[C@H](C)O2)[C@H](C)[C@@H](O[C@@H]2O[C@H](C)C[C@H](N(C)C)[C@H]2O)[C@](C)(O)C[C@@H](C)[C@@H]2N[C@@H](COCCOC)O[C@H]([C@H]2C)[C@]1(C)O` [Dirithromycin] yielded a Normal melting temperature of 194.36 ± 6 °C.

From the NIST ThermoML archive (doi:10.1016/j.jct.2018.12.044)
